For one assay, the target named is TRKB (Homo sapiens (Human), UniProt Q16620). Briefly: cell-based. The following applies: TrkB cell potency, TRKB PathHunter cell line. Here is the method:
(§1) After the Detection Reagent addition, plates are covered and incubated at room temperature for 60 minutes. […] Test compound data are expressed as percentage inhibition defined by HPE and ZPE values for each plate. Percentage inhibition in the presence of test compound is plotted against compound concentration on a log scale to determine an IC50 from the resultant sigmoid curve. Cell Based Assays were carried out using Cell lines from DiscoveRx utilising their PathHunter technology and reagents in an antagonist assay:
(§2) The assays are based upon DiscoveRx's proprietary Enzyme Fragment Complementation (EFC) technology. In the case of the TRK cell lines, the enzyme acceptor (EA) protein is fused to a SH2 protein and the TRK receptor of interest has been tagged with a Prolink tag.
(§3) Upon neurotrophin binding, the TRK receptor becomes phosphorylated, and the tagged SH2 protein binds.
(§4) This means that the IC50 is a good measure of affinity and should be unaffected by concentration neurotrophin stimulant.
(§5) Cryopreserved PathHunter cells are used from either in-house produced batches or bulk batches bought directly from DiscoveRx. Cryopreserved cells are resuscitated, spun 1000 rpm for 4 min to remove freezing media, and resuspended in MEM+0.5% horse serum (both Invitrogen) to 5e^5 cells/ml. The cells are then plated using a Multidrop into Greiner white tissue culture treated plates at 20 ul/well and incubated for 24 h at 37° C., 5% CO2, high humidity. On the day of the assay, the cell plates are allowed to cool to room temperature for 30 min prior to the assay.
(§6) Plates containing 1 ul of serially diluted compound, standard and HPE/ZPE are diluted 1/66 in assay buffer (PBS minus Ca^2+, minus Mg^2+ with 0.05% pluronic F127) using a Wellmate. […] The plates are left at room temperature for a further 2 hours before addition of 10 ul of the DiscoveRx PathHunter detection reagent (made up by adding 1 part Galacton Star, 5 parts Emerald II and 19 parts Cell Assay Buffer as per the manufacturer's instructions).
(§7) After reagent addition, plates are covered and incubated at room temperature for 60 minutes. Luminescence signal is read using an Envision. Test compound data are expressed as percentage inhibition defined by HPE and ZPE values for each plate. Percentage inhibition in the presence of test compound is plotted against compound concentration on a log scale to determine an […] from the resultant sigmoid curve.

Assay [1] deals with T1, TRKA (Homo sapiens (Human), UniProt P04629). Nature of the assay: Cell based DiscoveRx PathHunter antagonist assay, TRKA cell line. Particulars: read-out: TrkA cell potency. Here is the method:
as §1, §2, §3, §4, §5, §6, §7
Target sequence in this assay (P04629 33-796): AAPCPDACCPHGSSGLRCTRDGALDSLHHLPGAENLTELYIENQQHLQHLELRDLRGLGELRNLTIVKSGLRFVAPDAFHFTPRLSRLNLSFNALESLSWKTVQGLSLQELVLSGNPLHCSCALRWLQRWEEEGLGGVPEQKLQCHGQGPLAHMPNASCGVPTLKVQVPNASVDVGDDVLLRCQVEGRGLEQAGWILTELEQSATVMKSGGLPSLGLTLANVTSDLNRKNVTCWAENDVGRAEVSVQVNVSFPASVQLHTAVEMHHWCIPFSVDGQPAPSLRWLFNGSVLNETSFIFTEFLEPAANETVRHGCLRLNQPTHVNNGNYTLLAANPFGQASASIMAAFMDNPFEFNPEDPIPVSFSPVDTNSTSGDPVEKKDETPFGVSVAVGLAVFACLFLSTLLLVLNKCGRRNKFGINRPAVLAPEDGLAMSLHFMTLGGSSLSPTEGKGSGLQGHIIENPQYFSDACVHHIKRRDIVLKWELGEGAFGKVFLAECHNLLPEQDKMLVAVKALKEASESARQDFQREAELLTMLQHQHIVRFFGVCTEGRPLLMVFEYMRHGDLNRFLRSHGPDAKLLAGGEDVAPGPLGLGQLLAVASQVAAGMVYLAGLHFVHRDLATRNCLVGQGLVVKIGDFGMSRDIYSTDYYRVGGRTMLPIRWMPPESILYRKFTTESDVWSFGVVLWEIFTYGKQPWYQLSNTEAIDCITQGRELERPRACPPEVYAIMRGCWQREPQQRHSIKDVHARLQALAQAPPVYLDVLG

Assay [2] deals with T1, TRKA. Briefly: Isolated TRK enzyme assay (HTRF KinEASE-TK), TRKA. The format is biochemical. A general note: TR-FRET usually uses a lanthanide donor and a delayed reading to cut background.
Target sequence in this assay (P04629 441-796): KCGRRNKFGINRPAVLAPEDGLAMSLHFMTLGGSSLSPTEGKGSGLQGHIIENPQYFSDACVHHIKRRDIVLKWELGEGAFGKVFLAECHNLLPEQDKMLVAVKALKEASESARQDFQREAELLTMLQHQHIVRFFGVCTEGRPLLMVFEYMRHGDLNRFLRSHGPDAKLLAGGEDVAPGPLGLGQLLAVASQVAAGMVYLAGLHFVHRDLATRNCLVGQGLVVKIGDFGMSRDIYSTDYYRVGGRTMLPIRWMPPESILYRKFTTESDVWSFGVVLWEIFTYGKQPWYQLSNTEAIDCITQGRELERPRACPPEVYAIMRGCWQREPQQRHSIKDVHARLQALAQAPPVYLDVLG

Chain of TRKB (Q16620 32-822 limits assumed): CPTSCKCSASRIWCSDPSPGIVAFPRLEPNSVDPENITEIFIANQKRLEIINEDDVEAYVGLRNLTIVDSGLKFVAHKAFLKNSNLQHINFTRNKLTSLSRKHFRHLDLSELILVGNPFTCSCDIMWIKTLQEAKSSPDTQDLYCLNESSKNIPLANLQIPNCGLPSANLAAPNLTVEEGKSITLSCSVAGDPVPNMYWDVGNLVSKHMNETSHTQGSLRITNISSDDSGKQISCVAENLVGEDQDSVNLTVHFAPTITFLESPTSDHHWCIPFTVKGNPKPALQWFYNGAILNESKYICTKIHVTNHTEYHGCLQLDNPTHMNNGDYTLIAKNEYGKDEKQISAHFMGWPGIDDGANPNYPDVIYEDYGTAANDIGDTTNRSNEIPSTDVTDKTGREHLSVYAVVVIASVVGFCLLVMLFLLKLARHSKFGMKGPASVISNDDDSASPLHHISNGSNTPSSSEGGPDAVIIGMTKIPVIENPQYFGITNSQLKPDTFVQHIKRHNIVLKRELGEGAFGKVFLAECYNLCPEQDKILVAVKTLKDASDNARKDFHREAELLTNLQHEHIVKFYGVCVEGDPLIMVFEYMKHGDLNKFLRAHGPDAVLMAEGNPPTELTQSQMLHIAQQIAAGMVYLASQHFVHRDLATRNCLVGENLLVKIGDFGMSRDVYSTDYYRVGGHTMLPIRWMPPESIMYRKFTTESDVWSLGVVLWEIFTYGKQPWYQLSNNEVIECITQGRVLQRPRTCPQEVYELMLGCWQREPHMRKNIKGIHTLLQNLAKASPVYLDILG

As for `CC(CO)n1cc(C(=O)c2cncc(NC(=O)Cc3ccc(F)cn3)c2)c2cnc(N)nc21` (single isomer, unassigned) [Example 37, N-(5-{[2-amino-7-(2-hydroxy-1-methylethyl)-7H-pyrrolo[2,3-d]pyrimidin-5-yl]carbonyl}pyridin-3-yl)-2-(5-fluoropyridin-2-yl)acetamide], the IC50 against TRKB was found to be 571 nM; on TRKA [1], 2250 nM; on TRKA [2] (isolated TRKA enzyme, read-out: TrkA enzyme potency), 67 nM. For the compound `CC1(n2cc(C(=O)c3cncc(NC(=O)Cc4cccc(C(F)(F)F)c4)c3)c3cncnc32)COC1` [Example 572, N-{5-[7-(3-Methyl-oxetan-3-yl)-7H-pyrrolo[2,3-d]pyrimidine-5-carbonyl]-pyridin-3-yl}-2-(3-trifluoromethyl-phenyl)-acetamide], the IC50 on TRKA [2] (read-out: Trka enzyme (IC50)) turned out to be 9.5 nM. Take `CC1(n2cc(C(=O)c3cncc(NC(=O)Cc4ccc(C(F)(F)F)c(F)c4)c3)c3cncnc32)COC1` [Example 573, 2-(3-Fluoro-4-trifluoromethyl-phenyl)-N-{5-[7-(3-methyl-oxetan-3-yl)-7H-pyrrolo[2,3-d]pyrimidine-5-carbonyl]-pyridin-3-yl}-acetamide]: at TRKA [2] (read-out: Trka enzyme (IC50)), the IC50 amounted to 17.9 nM. For the compound `CC1(n2cc(C(=O)c3cncc(NC(=O)c4cccc(C(F)(F)F)c4)c3)c3cncnc32)COC1` [Example 574, N-{5-[7-(3-Methyl-oxetan-3-yl)-7H-pyrrolo[2,3-d]pyrimidine-5-carbonyl]-pyridin-3-yl}-3-trifluoromethyl-benzamide], at TRKA [2] (read-out: Trka enzyme (IC50)), the IC50 was determined as 14.2 nM. Regarding `CC1(n2cc(C(=O)c3cncc(NC(=O)c4cccc(OC(F)(F)F)c4)c3)c3cncnc32)COC1` [Example 575, N-{5-[7-(3-Methyl-oxetan-3-yl)-7H-pyrrolo[2,3-d]pyrimidine-5-carbonyl]-pyridin-3-yl}-3-trifluoromethoxy-benzamide], on TRKA [2] (read-out: Trka enzyme (IC50)), the IC50 turned out to be 3.09 nM. Take `CC(C)(CO)n1cc(C(=O)c2cncc(NC(=O)Cn3cc(C4CC4)cn3)c2)c2cnc(N)nc21` [Example 576, N-{5-[2-Amino-7-(2-hydroxy-1,1-dimethyl-ethyl)-7H-pyrrolo[2,3-d]pyrimidine-5-carbonyl]-pyridin-3-yl}-2-(4-cyclopropyl-pyrazol-1-yl)-acetamide]: the IC50 at TRKA [2] (read-out: Trka enzyme (IC50)) was found to be 296 nM. Consider `CC(C)(C)n1cc(C(=O)c2cncc(NC(=O)Cn3cc(C4CC4)cn3)c2)c2cnc(N)nc21` [Example 577, N-[5-(2-Amino-7-tert-butyl-7H-pyrrolo[2,3-d]pyrimidine-5-carbonyl)-pyridin-3-yl]-2-(4-cyclopropyl-pyrazol-1-yl)-acetamide], for which the IC50 at TRKA [2] (read-out: Trka enzyme (IC50)) came out at 1.9 nM. In the case of `Nc1ncc2c(C(=O)c3cncc(NC(=O)Cc4ccc(F)cn4)c3)cn(C34CC(C3)C4)c2n1` [Example 578, N-[5-(2-Amino-7-bicyclo[1.1.1]pent-1-yl-7H-pyrrolo[2,3-d]pyrimidine-5-carbonyl)-pyridin-3-yl]-2-(5-fluoro-pyridin-2-yl)-acetamide], the IC50 on TRKA [2] (read-out: Trka enzyme (IC50)) was found to be 6.07 nM. Regarding `CS(=O)(=O)c1cccc(CC(=O)Nc2cncc(C(=O)c3cn(C45CC(C4)C5)c4nc(N)ncc34)c2)c1` [Example 579, N-[5-(2-Amino-7-bicyclo[1.1.1]pent-1-yl-7H-pyrrolo[2,3-d]pyrimidine-5-carbonyl)-pyridin-3-yl]-2-(3-methanesulfonyl-phenyl)-acetamide], at TRKA [2] (read-out: Trka enzyme (IC50)), the IC50 is 8.11 nM. `Nc1ncc2c(C(=O)c3cncc(NC(=O)Cn4ccc(C(F)(F)F)n4)c3)cn(C34CC(C3)C4)c2n1` [Example 580, N-[5-(2-Amino-7-bicyclo[1.1.1]pent-1-yl-7H-pyrrolo[2,3-d]pyrimidine-5-carbonyl)-pyridin-3-yl]-2-(3-trifluoromethyl-pyrazol-1-yl)-acetamide]: the IC50 at TRKA [2] (read-out: Trka enzyme (IC50)) is 0.825 nM. On the same count and under the same terms, the result for `Nc1ncc2c(C(=O)c3cncc(NC(=O)Cn4cc(C(F)(F)F)nn4)c3)cn(C34CC(C3)C4)c2n1` [Example 581, N-[5-(2-Amino-7-bicyclo[1.1.1]pent-1-yl-7H-pyrrolo[2,3-d]pyrimidine-5-carbonyl)-pyridin-3-yl]-2-(4-trifluoromethyl-[1,2,3]triazol-1-yl)-acetamide] reads 3.21 nM; that for `N#Cc1ccc(CC(=O)Nc2cncc(C(=O)c3cn(C45CC(C4)C5)c4nc(N)ncc34)c2)cc1` [Example 582, N-[5-(2-Amino-7-bicyclo[1.1.1]pent-1-yl-7H-pyrrolo[2,3-d]pyrimidine-5-carbonyl)-pyridin-3-yl]-2-(4-cyano-phenyl)-acetamide], 9.79 nM; that for `Nc1ncc2c(C(=O)c3cncc(NC(=O)Cc4ccc(Cl)cn4)c3)cn(C34CC(C3)C4)c2n1` [Example 583, N-[5-(2-Amino-7-bicyclo[1.1.1]pent-1-yl-7H-pyrrolo[2,3-d]pyrimidine-5-carbonyl)-pyridin-3-yl]-2-(5-chloro-pyridin-2-yl)-acetamide], 0.681 nM.

`CC(C)n1cc(C(=O)c2c[nH]c(=O)c(NC(=O)Cc3ccc(C#N)cc3)c2)c2cncnc21` [Example 584, 2-(4-cyanophenyl)-N-(2-oxo-5-{[7-(propan-2-yl)-7H-pyrrolo[2,3-d]pyrimidin-5-yl]carbonyl}-1,2-dihydropyridin-3-yl)acetamide]: on TRKA [2] (read-out: Trka enzyme (IC50)), the IC50 is 581 nM. `CC(C)n1cc(C(=O)c2c[nH]c(=O)c(NC(=O)COc3ccccc3OC(F)(F)F)c2)c2cncnc21` [Example 585, N-(2-oxo-5-{[7-(propan-2-yl)-7H-pyrrolo[2,3-d]pyrimidin-5-yl]carbonyl}-1,2-dihydropyridin-3-yl)-2-[2-(trifluoromethoxy)phenoxy]acetamide]: the IC50 on TRKA [2] (read-out: Trka enzyme (IC50)) came out at 36.7 nM. On the same count and under the same terms, in the case of `CC(C)n1cc(C(=O)c2c[nH]c(=O)c(NC(=O)Cc3coc(C4CC4)n3)c2)c2cncnc21` [Example 586, 2-(2-cyclopropyl-1,3-oxazol-4-yl)-N-(2-oxo-5-{[7-(propan-2-yl)-7H-pyrrolo[2,3-d]pyrimidin-5-yl]carbonyl}-1,2-dihydropyridin-3-yl)acetamide] it was 1000 nM; in that of `Cc1cc(C(F)(F)F)nn1CC(=O)Nc1cc(C(=O)c2cn(C(C)C)c3ncncc23)c[nH]c1=O` [Example 587, 2-[5-methyl-3-(trifluoromethyl)-1H-pyrazol-1-yl]-N-(2-oxo-5-{[7-(propan-2-yl)-7H-pyrrolo[2,3-d]pyrimidin-5-yl]carbonyl}-1,2-dihydropyridin-3-yl)acetamide], 20.5 nM. On the same count and under the same terms, the result for `CC(C)n1cc(C(=O)c2c[nH]c(=O)c(NC(=O)Cc3ccc4cccnc4c3)c2)c2cncnc21` [Example 588, N-(2-oxo-5-{[7-(propan-2-yl)-7H-pyrrolo[2,3-d]pyrimidin-5-yl]carbonyl}-1,2-dihydropyridin-3-yl)-2-(quinolin-7-yl)acetamide] reads 334 nM.

In the case of `CC(C)n1cc(C(=O)c2c[nH]c(=O)c(NC(=O)Cc3ccc(Cl)cc3)c2)c2cncnc21` [Example 589, 2-(4-chlorophenyl)-N-(2-oxo-5-{[7-(propan-2-yl)-7H-pyrrolo[2,3-d]pyrimidin-5-yl]carbonyl}-1,2-dihydropyridin-3-yl)acetamide], the IC50 on TRKA [2] (read-out: Trka enzyme (IC50)) turned out to be 31.3 nM. Same read-out and setting: the result for `CC(C)n1cc(C(=O)c2c[nH]c(=O)c(NC(=O)Cc3ccc(Cl)cn3)c2)c2cncnc21` [Example 590, 2-(5-chloropyridin-2-yl)-N-(2-oxo-5-{[7-(propan-2-yl)-7H-pyrrolo[2,3-d]pyrimidin-5-yl]carbonyl}-1,2-dihydropyridin-3-yl)acetamide] reads 71.2 nM. Same read-out and setting: in the case of `CC(C)n1cc(C(=O)c2c[nH]c(=O)c(NC(=O)Cn3cc(C(F)(F)F)nn3)c2)c2cncnc21` [Example 591, N-(2-oxo-5-{[7-(propan-2-yl)-7H-pyrrolo[2,3-d]pyrimidin-5-yl]carbonyl}-1,2-dihydropyridin-3-yl)-2-[4-(trifluoromethyl)-1H-1,2,3-triazol-1-yl]acetamide] it was 142 nM. Consider “N-(5-(7-(1,3-dihydroxy-2-methylpropan-2-yl)-7H-pyrrolo[2,3-d]pyrimidine-5-carbonyl)pyridin-3-yl)-2-(3-trifluoromethoxy)phenyl)acetamide [Example 262]”, for which, at TRKA [2] (read-out: Trka enzyme (IC50)), the IC50 was 32.3 nM.

Source of the values: US8846698B2, “Pyrrolo[2,3-d]pyrimidine tropomysin-related kinase inhibitors” (Pfizer Limited, priority 2011, dated 2014).
